Measured values taken from PMC10987639 (2024).

Assays:
[1] = tested on: yjdF riboswitch aptamer domain from R. gauvreauii, P2a loop modified for Fab BL3-6 binding (crystallization construct) (RNA, riboswitch) GGACAAAGAUAAAAACACAACGUAUGGCGAAACACGUCAUACAGAUCCGGUAGGUAGUCCGGACAUAAACAGCGGUAUAAAGCGCUGUUUAUAAGUAACCUUCCUCCUUAGGUCGUCCAUUCUUUGUC; test: X-ray crystallography (3.05 Å); details: Mg2+ (PDB ligand; concentration not in material); co-crystal with Fab BL3-6, pH 7.5; ligand orientation ambiguous
[2] = tested on: yjdF riboswitch aptamer domain from R. gauvreauii, P2a loop modified for Fab BL3-6 binding (crystallization construct) (RNA, riboswitch) GGACAAAGAUAAAAACACAACGUAUGGCGAAACACGUCAUACAGAUCCGGUAGGUAGUCCGGACAUAAACAGCGGUAUAAAGCGCUGUUUAUAAGUAACCUUCCUCCUUAGGUCGUCCAUUCUUUGUC; test: X-ray crystallography (2.77 Å); details: Mg2+, K+ (PDB ligands; concentrations not in material); co-crystal with Fab BL3-6, potassium osmate(VI) soak, pH 7.5; two ligand orientations

binding [1] | binding [2] | SMILES
yes | – | Nc1ccc2cc3ccc(N)cc3nc2c1
– | yes | COc1ccc2c(c[n+](C)c3c4cc5c(cc4ccc23)OCO5)c1OC
